Reference: patent US20160060602A1, “FUSION MIXTURE” (FORSCHUNGSZENTRUM JÜLICH GMBH, priority 2013, published 2016)

Test system: MDA-MB-231 cancer cells
Experiment: Doxorubicin delivery into cancer cells (fluorescence microscopy)
Format: cell-based
Settings: MDA-MB-231 cells, 10-minute incubation, same amount of doxorubicin (2 μg)
Experimental: The components of fusion liposomes, DOTAL (molecules of type A) and Doxorubicin (molecules of type B), were mixed at a ratio of 1:0.1 mol/mol from 1 mg/ml parent solutions in chloroform.
Following homogenization of the lipid molecules with the aromatic doxorubicin, the organic solvent was removed under vacuum. The dried mixture was placed in 20 mM HEPES solution having a pH of 7.4 and homogenized in an ultrasonic bath for 20 minutes. The final concentration of the fusion mixture was set to 2 mg/ml. After a dilution of 1/100 v/v in DMEM medium, 500 μl of the fusion mixture was added to approximately 100,000 adherent MDA-MB-231 cancer cells and incubated for 10 minutes at 37° C.
A further cell sample was incubated with the same amount of doxorubicin (2 μg) in culture medium without fusion mixture for control purposes. The conventional dosage is 1 mg/ml.
In addition, doxorubicin was introduced into neutral DOPC liposomes (without molecules of type A) (DOPC:Dox at a ratio of 1:0.1 mol/mol) and added to adherent cells in the same concentration as in the other sample (2 μg/ml). […] The results were then compared to each other.

COc1cccc2c1C(=O)c1c(O)c3c(c(O)c1C2=O)C[C@@](O)(C(=O)CO)C[C@@H]3O[C@H]1C[C@H](N)[C@H](O)[C@H](C)O1 [free doxorubicin, doxorubicin]
doxorubicin uptake (fluorescent signal in cells): low fluorescent signal
